pIC50: −log10 of the molar value. Where two headings read alike, the source gives them in different places.
How the values were obtained:
GSK3β = GSK3β (Homo sapiens, UniProt P49841); test: GSK3β kinase assay (Caliper LabChip3000, fluoresceinated peptide substrate); assay type: biochemical; settings: for IC50: first value of the cell, 250 pM enzyme, 20 uM ATP, 20 hours at room temperature, read-out: GSK3β/α (nM): GSK3β IC50
Summary of the method: (§1)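 Eleven-point compound titrations (10 mM DMSO stocks) incubated with kinase and fluorescent peptide for 20 h at room temperature before EDTA quench. Substrate-to-product conversion measured by microfluidic mobility shift; IC50 from non-linear fitting.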

GSK3α = GSK3α (Homo sapiens, UniProt P49840); test: biochemical; settings: for IC50: second value of the cell, 250 pM enzyme, 20 uM ATP, 20 hours at room temperature, read-out: GSK3β/α (nM): GSK3α IC50
Summary of the method: as §1

pTau = pTau assay (method not described); assay type: cell-based; settings: for pIC50: read-out: pTau; for IC50: read-out: pTau (nM)

Sequence of GSK3α (P49840 whole entry, species assumed): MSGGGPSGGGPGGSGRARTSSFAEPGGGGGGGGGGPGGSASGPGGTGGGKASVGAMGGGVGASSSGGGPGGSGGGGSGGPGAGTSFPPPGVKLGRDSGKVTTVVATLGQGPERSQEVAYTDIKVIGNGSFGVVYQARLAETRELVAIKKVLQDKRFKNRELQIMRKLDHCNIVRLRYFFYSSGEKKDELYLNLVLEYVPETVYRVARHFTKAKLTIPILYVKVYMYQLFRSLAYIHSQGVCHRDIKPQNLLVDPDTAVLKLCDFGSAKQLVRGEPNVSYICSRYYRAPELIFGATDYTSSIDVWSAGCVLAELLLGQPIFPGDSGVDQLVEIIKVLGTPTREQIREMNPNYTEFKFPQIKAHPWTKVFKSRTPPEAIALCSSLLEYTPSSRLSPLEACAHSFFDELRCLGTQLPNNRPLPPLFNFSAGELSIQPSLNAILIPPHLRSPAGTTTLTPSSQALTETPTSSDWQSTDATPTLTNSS
Sequence of GSK3β (P49841 whole entry, species assumed): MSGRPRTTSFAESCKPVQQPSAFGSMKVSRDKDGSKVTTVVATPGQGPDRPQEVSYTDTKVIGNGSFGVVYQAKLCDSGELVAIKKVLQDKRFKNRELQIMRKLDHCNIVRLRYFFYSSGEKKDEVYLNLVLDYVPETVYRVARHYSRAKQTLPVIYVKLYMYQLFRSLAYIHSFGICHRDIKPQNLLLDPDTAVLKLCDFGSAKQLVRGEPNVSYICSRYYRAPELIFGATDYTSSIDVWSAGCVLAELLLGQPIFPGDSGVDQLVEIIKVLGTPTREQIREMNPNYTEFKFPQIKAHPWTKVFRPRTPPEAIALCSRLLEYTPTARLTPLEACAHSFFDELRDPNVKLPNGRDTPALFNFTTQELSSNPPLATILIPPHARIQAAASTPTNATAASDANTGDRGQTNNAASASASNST

SMILES | IC50 (GSK3β) [nM] | IC50 (GSK3α) [nM] | pIC50 (pTau) | pIC50 (GSK3β) | pIC50 (GSK3α) | IC50 (pTau) [nM]
Cc1c(NC(=O)c2ccnc(NC(=O)C3CC3)c2)cnn1C [Example 175, 2-(cyclopropanecarboxamido)-N-(1,5-dimethyl-1H-pyrazol-4-yl)isonicotinamide] | 68 | 33 | 5.43 |  |  | 
O=C(Nc1cncnc1)c1ccnc(NC(=O)C2CC2)c1 [Example 178, 2-(Cyclopropanecarboxamido)-N-(pyrimidin-5-yl)isonicotinamide] | 14 | 12 | 5.92 |  |  | 
O=C(Nc1cncnc1N1CCC(F)(F)CC1)c1ccnc(NC(=O)C2CC2)c1 [Example 179, 2-(Cyclopropanecarboxamido)-N-(4-(4,4-difluoropiperidin-1-yl)pyrimidin-5-yl)isonicotinamide] | 160 | 40 | 5.52 |  |  | 
O=C(Nc1cncc(-c2ccccc2F)n1)c1ccnc(NC(=O)C2CC2)c1 [Example 180, 2-(Cyclopropanecarboxamido)-N-(6-(2-fluorophenyl)pyrazin-2-yl)isonicotinamide] | 6.2 | 1.2 | 6.72 |  |  | 
O=C(Nc1nc2cnccc2s1)c1ccnc(NC(=O)C2CC2)c1 [Example 182, 2-(cyclopropanecarboxamido)-N-(thiazolo[4,5-c]pyridin-2-yl)isonicotinamide] | 1300 | 470 | ≤ 5.00 |  |  | 
NC(=O)c1cnc(NC(=O)c2ccnc(NC(=O)C3CC3)c2)s1 [Example 183, 2-(2-(cyclopropanecarboxamido)isonicotinamido)thiazole-5-carboxamide] | 530 | 200 | ≤ 5.00 |  |  | 
Cc1cccc2sc(NC(=O)c3ccnc(NC(=O)C4CC4)c3)nc12 [Example 184, 2-(cyclopropanecarboxamido)-N-(4-methylbenzo[d]thiazol-2-yl)isonicotinamide] | 800 | 170 | ≤ 5.00 |  |  | 
CC(C)C(=O)Nc1cc(C(=O)Nc2cnccc2-c2ccccc2)ccn1 [Example 185, 2-Isobutyramido-N-(4-phenylpyridin-3-yl)isonicotinamide] |  | 4.2 | 6.74 | 8.85 |  | 
CC(C)C(=O)Nc1cc(C(=O)Nc2cnccc2-c2ccc(Cl)cc2)ccn1 [Example 186, N-(4-(4-chlorophenyl)pyridin-3-yl)-2-isobutyramidoisonicotinamide] |  | 6.5 | 6.44 | 7.70 |  | 
CC(C)C(=O)Nc1cc(C(=O)Nc2cnc(F)cc2OCC(F)F)ccn1 [Example 187, N-(4-(2,2-difluoroethoxy)-6-fluoropyridin-3-yl)-2-isobutyramidoisonicotinamide] | 2.7 | 1.2 | 6.68 |  |  | 
CC(C)C(=O)Nc1cc(C(=O)Nc2cnccc2OCCN2CCCC2)ccn1 [Example 188, 2-Isobutyramido-N-(4-(2-(pyrrolidin-1-yl)ethoxy)pyridin-3-yl)isonicotinamide] | 39 | 19 | 5.66 |  |  | 
CC(C)C(=O)Nc1cc(C(=O)Nc2cnccc2OCCN2CCOCC2)ccn1 [Example 189, 2-Isobutyramido-N-(4-(2-morpholinoethoxy)pyridin-3-yl)isonicotinamide] |  | 1.1 | 7.00 | 8.64 |  | 
CC(C)C(=O)Nc1cc(C(=O)Nc2cnccc2OCCC(C)(C)O)ccn1 [Example 190, N-(4-(3-hydroxy-3-methylbutoxy)pyridin-3-yl)-2-isobutyramidoisonicotinamide] |  |  |  | 8.48 | 8.85 | 19
CCC1(c2cc(Cl)ncc2NC(=O)c2ccnc(NC(=O)C(C)C)c2)OCCO1 [Example 191, N-(6-chloro-4-(2-ethyl-1,3-dioxolan-2-yl)pyridin-3-yl)-2-isobutyramidoisonicotinamide] | 0.08 | 0.12 | 7.92 |  |  | 
CC(C)C(=O)Nc1cc(C(=O)Nc2cncc(-c3cc(F)ccc3F)c2)ccn1 [Example 192, N-(5-(2,5-difluorophenyl)pyridin-3-yl)-2-isobutyramidoisonicotinamide] |  | 1.4 | 7.03 | 8.34 |  | 
CC(C)C(=O)Nc1cc(C(=O)Nc2cncc(-c3ccccc3F)c2)ccn1 [Example 193, N-(5-(2-fluorophenyl)pyridin-3-yl)-2-isobutyramidoisonicotinamide] |  | 2.2 | 7.07 | 8.25 |  | 
CC(C)C(=O)Nc1cc(C(=O)Nc2cncc(-c3cccc(F)c3F)c2)ccn1 [Example 194, N-(5-(2,3-difluorophenyl)pyridin-3-yl)-2-isobutyramidoisonicotinamide] | 3.8 | 1.4 | 6.85 |  |  | 
CC(C)C(=O)Nc1cc(C(=O)Nc2cncc(-c3ccccc3Cl)c2)ccn1 [Example 195, N-(5-(2-chlorophenyl)pyridin-3-yl)-2-isobutyramidoisonicotinamide] | 10 | 1.5 | 6.97 |  |  | 

SMILES | IC50 (GSK3β) [nM] | IC50 (GSK3α) [nM] | pIC50 (pTau) | pIC50 (GSK3β) | pIC50 (GSK3α) | IC50 (pTau) [nM]
CC(C)C(=O)Nc1cc(C(=O)Nc2cnccc2C(=O)c2ccccc2)ccn1 [Example 196, N-(4-benzoylpyridin-3-yl)-2-isobutyramidoisonicotinamide] | 13 | 5.9 | 6.28 |  |  | 
CC(C)C(=O)Nc1cc(C(=O)Nc2cncc(C(O)c3ccccc3)c2)ccn1 (stereo not drawn) [Example 197, N-(5-(hydroxy(phenyl)methyl)pyridin-3-yl)-2-isobutyramidoisonicotinamide] | 19 | 12 | 6.49 |  |  | 
CC(C)C(=O)Nc1cc(C(=O)Nc2cnccc2C(F)(F)c2ccccc2)ccn1 [Example 198, N-(4-(difluoro(phenyl)methyl)pyridin-3-yl)-2-isobutyramidoisonicotinamide] | 390 | 230 | 5.00 |  |  | 
CC(C)C(=O)Nc1cc(C(=O)Nc2cnccc2C(F)c2ccccc2)ccn1 (stereo not drawn) [Example 199, N-(4-(fluoro(phenyl)methyl)pyridin-3-yl)-2-isobutyramidoisonicotinamide] | 10 | 12 | 6.14 |  |  | 
C=C(c1ccccc1)c1ccncc1NC(=O)c1ccnc(NC(=O)C(C)C)c1 [Example 200, 2-Isobutyramido-N-(4-(1-phenylvinyl)pyridine-3-yl)isonicotinamide] | 6.1 | 4.7 | 6.29 |  |  | 
CC(C)C(=O)Nc1cc(C(=O)Nc2cnccc2OCC2(C)CC2)ccn1 [Example 201, 2-isobutyramido-N-(4-((1-methylcyclopropyl)methoxy)pyridin-3-yl)isonicotinamide] | 1.1 | 0.4 | 7.59 |  |  | 
CC(C)C(=O)Nc1cc(C(=O)Nc2cnccc2OCC(C)(F)F)ccn1 [Example 202, N-(4-(2,2-Difluoropropoxy)pyridin-3-yl)-2-isobutyramidoisonicotinamide] |  |  |  | 9.00 | 9.34 | 50
CC(C)C(=O)Nc1cc(C(=O)Nc2cnccc2OCC(F)(F)F)ccn1 [Example 203, 2-Isobutyramido-N-(4-(2,2,2-trifluoroethoxy)pyridin-3-yl)isonicotinamide] |  | 0.35 | 7.15 | 9.14 |  | 
CC(C)C(=O)Nc1cc(C(=O)Nc2cnccc2OCC(F)F)ccn1 [Example 204, N-(4-(2,2-Difluoroethoxy)pyridin-3-yl)-2-isobutyramidoisonicotinamide] |  | 0.97 | 7.39 | 8.74 |  | 
CC(C)(F)C(=O)Nc1cc(C(=O)Nc2cnccc2-c2ccccc2)ccn1 [Example 205, 2-(2-Fluoro-2-methylpropanamido)-N-(4-phenylpyridin-3-yl)isonicotinamide] |  | 52 |  | 7.31 |  | 5100
CC(C)C(=O)Nc1cc(C(=O)Nc2cnccc2N2CCC(F)(F)CC2)c(F)cn1 [Example 206, N-(4-(4,4-difluoropiperidin-1-yl)pyridin-3-yl)-5-fluoro-2-isobutyramidoisonicotinamide] | 3 | 2.1 | 6.72 |  |  | 
CC(C)C(=O)Nc1cc(C(=O)Nc2cncc(-c3ccccc3F)n2)ccn1 [Example 207, N-(6-(2-fluorophenyl)pyrazin-2-yl)-2-isobutyramidoisonicotinamide] | 2.5 | 1.1 | 6.80 |  |  | 
CC(C)(C)C(=O)Nc1cc(C(=O)Nc2cnccc2N2CCC(F)(F)CC2)ccn1 [Example 208, N-(4-(4,4-difluoropiperidin-1-yl)pyridin-3-yl)-2-pivalamidoisonicotinamide] |  | 3.1 | 6.92 | 8.38 |  | 
CC(C)(C)C(=O)Nc1cc(C(=O)Nc2cncc(-c3cccc(F)c3F)c2)ccn1 [Example 209, N-(5-(2,3-difluorophenyl)pyridin-3-yl)-2-pivalamidoisonicotinamide] |  | 14 | 5.68 | 7.62 |  | 
CCC1(c2cc(Cl)ncc2NC(=O)c2ccnc(NC(=O)C(C)(C)C)c2)OCCO1 [Example 210, N-(6-chloro-4-(2-ethyl-1,3-dioxolan-2-yl)pyridin-3-yl)-2-pivalamidoisonicotinamide] | 3.6 | 1.3 | 6.60 |  |  | 
CCOc1ccncc1NC(=O)c1ccnc(NC(=O)C2CCC2)c1 [Example 211, 2-(Cyclobutanecarboxamido)-N-(4-ethoxypyridin-3-yl)isonicotinamide] |  | 0.9 | 7.14 | 8.66 |  | 
O=C(Nc1cnccc1-c1ccccc1)c1ccnc(NC(=O)C2CCC2)c1 [Example 212, 2-(Cyclobutanecarboxamido)-N-(4-phenylpyridin-3-yl)isonicotinamide] |  |  |  | 8.37 | 8.36 | 96
